Measured values: the supplement of paper PMC10307832

Tests used:
Test in all cases: relative viability (nuclei count vs DMSO), 5 days (fraction); higher = more cells survive
[1] = compound: O=C1NC(=O)[C@@H](c2cn3c4c(cccc24)CCC3)[C@@H]1c1c[nH]c2ccccc12 [Tivantinib] + CC(=O)c1c(C)c2cnc(Nc3ccc(N4CCNCC4)cn3)nc2n(C2CCCC2)c1=O [Palbociclib] (partner 0.5 µM)
How it was run: (§1)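 One day after seeding in 1536-well plates, lung cancer cell lines were dosed by pin tool. Dosing was either single-drug or a fixed anchor-drug dose plus five library-drug doses (not always all listed) in √10 steps. After 5 days, nuclei were stained in one fix-and-stain step and counted on 4× images, and relative viability is the nuclei count of treated wells over that of vehicle wells, given as the median of duplicate plates.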

[2] = compound: CC1(COc2ccc3c(c2)ncn3-c2ccc3cccc(N4CCC(N)CC4)c3n2)COC1 [Crenolanib] + CS(=O)(=O)CCNCc1ccc(-c2ccc3ncnc(Nc4ccc(OCc5cccc(F)c5)c(Cl)c4)c3c2)o1 [Lapatinib] (partner 2 µM)
How it was run: as §1

[3] = compound: O=C1NC(=O)[C@@H](c2cn3c4c(cccc24)CCC3)[C@@H]1c1c[nH]c2ccccc12 [Tivantinib] + N=C(N)NC(=N)NCCc1ccccc1 [Phenformin] (partner 250 µM)
How it was run: as §1

[4] = compound: O=C1NC(=O)[C@@H](c2cn3c4c(cccc24)CCC3)[C@@H]1c1c[nH]c2ccccc12 [Tivantinib] + CCNC(=O)c1noc(-c2cc(C(C)C)c(O)cc2O)c1-c1ccc(CN2CCOCC2)cc1 [Luminespib] (partner 0.01 µM)
How it was run: as §1

| Cell Line | relative viability ([1]; first compound 0.01 µM) | relative viability ([1]; first compound 0.03162 µM) | relative viability ([1]; first compound 0.1 µM) | relative viability ([1]; first compound 0.3162 µM) | relative viability ([2]; first compound 0.01 µM) | relative viability ([2]; first compound 0.03162 µM) | relative viability ([2]; first compound 0.1 µM) | relative viability ([2]; first compound 0.3162 µM) | relative viability ([2]; first compound 1 µM) | relative viability ([3]; first compound 0.01 µM) | relative viability ([3]; first compound 0.03162 µM) | relative viability ([3]; first compound 0.1 µM) | relative viability ([3]; first compound 0.3162 µM) | relative viability ([4]; first compound 0.01 µM) | relative viability ([4]; first compound 0.03162 µM) | relative viability ([4]; first compound 0.1 µM) | relative viability ([4]; first compound 0.3162 µM) |
| --- | --- | --- | --- | --- | --- | --- | --- | --- | --- | --- | --- | --- | --- | --- | --- | --- | --- |
| NCI-H2405 | 0.565 | 0.584 | 0.486 | 0.536 | 1.02 | 1.13 | 0.85 | 0.998 | 0.948 | 0.437 | 0.38 | 0.367 | 0.473 | 0.77 | 0.908 | 0.651 | 0.586 |
| NCI-H2023 | 0.447 | 0.376 | 0.334 | 0.327 | 1.04 | 0.898 | 0.844 | 0.889 | 0.47 | 0.484 | 0.41 | 0.422 | 0.444 | 0.867 | 0.82 | 0.673 | 0.528 |
| COR-L23 | 0.343 | 0.304 | 0.268 | 0.325 | 0.952 | 1.13 | 0.836 | 0.931 | 0.987 | 0.453 | 0.416 | 0.415 | 0.508 | 0.625 | 0.685 | 0.661 | 0.757 |
| HCC-827 | 0.458 | 0.531 | 0.487 | – | 0.163 | 0.188 | 0.16 | 0.217 | 0.191 | 0.338 | 0.466 | 0.379 | 0.166 | 0.472 | 0.661 | 0.699 | 0.378 |
| NCI-H1355 | 0.395 | 0.374 | 0.385 | 0.384 | 1.02 | 1.04 | 0.999 | 1.15 | 0.78 | 0.474 | 0.475 | 0.439 | 0.436 | 0.787 | 0.687 | 0.726 | 0.723 |
| NCI-H838 | 0.245 | 0.212 | 0.188 | 0.207 | 1.07 | 0.966 | 0.993 | 1.02 | 0.805 | 0.705 | 0.554 | 0.464 | 0.514 | 0.276 | 0.308 | 0.302 | 0.335 |
| NCI-H2126 | 0.366 | 0.323 | 0.342 | 0.397 | 0.796 | 0.742 | 0.745 | 0.775 | 0.71 | 0.527 | 0.504 | 0.532 | 0.47 | 0.978 | 0.886 | 0.884 | 0.745 |
| BEN | 0.446 | 0.474 | 0.508 | 0.447 | 0.808 | 0.552 | 0.746 | 0.685 | 0.68 | 0.29 | 0.258 | 0.254 | 0.26 | 0.361 | 0.262 | 0.232 | 0.385 |
| LCLC-97TM1 | 0.271 | 0.257 | 0.172 | 0.225 | 0.895 | 0.861 | 0.748 | 0.959 | 0.784 | 0.456 | 0.496 | 0.453 | 0.388 | 0.773 | 0.788 | 0.673 | 0.764 |
| EKVX | 0.408 | 0.446 | 0.381 | 0.174 | 0.2 | 0.241 | 0.186 | 0.222 | 0.239 | 0.218 | 0.256 | 0.243 | – | 0.997 | 0.927 | 0.938 | – |
| ABC-1 | 0.689 | 0.567 | 0.577 | 0.46 | 1.23 | 1.02 | 1.28 | 1.1 | 1.23 | 0.23 | 0.246 | 0.201 | 0.228 | 0.43 | 0.944 | 0.339 | 0.675 |
| NCI-H661 | 0.453 | 0.395 | 0.397 | 0.315 | 0.493 | 0.547 | 0.47 | 0.451 | 0.468 | 0.288 | 0.281 | 0.404 | 0.271 | 0.936 | 0.93 | 0.954 | 0.799 |
| NCI-H1651 | 0.518 | 0.461 | 0.495 | 0.424 | 0.83 | 0.979 | 0.9 | 0.945 | 0.767 | 0.348 | 0.287 | 0.318 | 0.376 | 0.768 | 1.02 | 0.764 | 0.77 |
| NCI-H2087 | 0.209 | 0.233 | 0.276 | 0.228 | 1.14 | 1 | 0.985 | 1.18 | 1.09 | 0.446 | 0.456 | 0.473 | 0.472 | 0.165 | 0.182 | 0.139 | 0.137 |
| NCI-H1793 | 0.334 | 0.237 | 0.325 | 0.241 | 0.767 | 0.799 | 0.475 | 0.855 | 0.645 | 0.347 | 0.388 | 0.371 | 0.213 | 0.186 | 0.22 | 0.156 | 0.203 |
| COR-L 105 | 0.441 | 0.385 | 0.436 | 0.375 | 0.353 | 0.403 | 0.345 | 0.37 | 0.335 | 0.523 | 0.366 | 0.401 | 0.369 | 0.708 | 0.835 | 0.873 | 0.742 |

| Cell Line | relative viability ([1]; first compound 0.01 µM) | relative viability ([1]; first compound 0.03162 µM) | relative viability ([1]; first compound 0.1 µM) | relative viability ([1]; first compound 0.3162 µM) | relative viability ([2]; first compound 0.01 µM) | relative viability ([2]; first compound 0.03162 µM) | relative viability ([2]; first compound 0.1 µM) | relative viability ([2]; first compound 0.3162 µM) | relative viability ([2]; first compound 1 µM) | relative viability ([3]; first compound 0.01 µM) | relative viability ([3]; first compound 0.03162 µM) | relative viability ([3]; first compound 0.1 µM) | relative viability ([3]; first compound 0.3162 µM) | relative viability ([4]; first compound 0.01 µM) | relative viability ([4]; first compound 0.03162 µM) | relative viability ([4]; first compound 0.1 µM) | relative viability ([4]; first compound 0.3162 µM) |
| --- | --- | --- | --- | --- | --- | --- | --- | --- | --- | --- | --- | --- | --- | --- | --- | --- | --- |
| NCI-H1437 | 0.311 | 0.28 | 0.335 | 0.289 | 0.751 | 0.762 | 0.808 | 0.873 | 0.688 | 0.3 | 0.278 | 0.275 | 0.351 | 1.13 | 1.15 | 1.1 | 1.06 |
| HARA | 0.259 | 0.249 | 0.246 | 0.193 | 0.711 | 0.81 | 0.645 | 0.602 | 0.684 | 0.418 | 0.417 | 0.416 | 0.373 | 0.909 | 0.592 | 0.738 | 0.689 |
| NCI-H2009 | 0.267 | 0.186 | 0.126 | 0.207 | 1.07 | 0.889 | 0.899 | 0.913 | 0.906 | 0.492 | 0.503 | 0.481 | 0.528 | 0.989 | 1.08 | 0.985 | 1.1 |
| NCI-H1755 | 0.437 | 0.44 | 0.432 | 0.459 | 1.02 | 1.08 | 0.987 | 1.12 | 0.967 | 0.591 | 0.591 | 0.589 | 0.666 | 0.478 | 0.473 | 0.4 | 0.437 |
| LU99A | 0.393 | 0.427 | 0.392 | 0.366 | 1.08 | 0.988 | 1 | 1.03 | 0.955 | 0.852 | 0.805 | 0.804 | 0.942 | 0.277 | 0.26 | 0.235 | 0.208 |
| NCI-H23 | 0.614 | 0.457 | 0.462 | 0.493 | 1.04 | 1.16 | 0.977 | 1.22 | 0.992 | 0.732 | 0.886 | 0.749 | 0.792 | 0.278 | – | 0.215 | 0.226 |
| PC-3 [JPC-3] | 0.482 | 0.6 | 0.508 | 0.491 | 0.452 | 0.45 | 0.511 | 0.449 | 0.452 | 0.459 | 0.494 | 0.506 | 0.355 | 0.794 | 0.777 | 0.678 | 0.575 |
| NCI-H520 | 0.263 | 0.213 | 0.2 | 0.203 | 0.664 | 0.848 | 0.88 | 0.85 | 0.778 | 0.669 | 0.393 | 0.536 | 0.547 | 0.212 | 0.218 | 0.209 | 0.198 |
| NCI-H1666 | 0.691 | 0.596 | 0.66 | 0.681 | 0.772 | 0.579 | 0.799 | 0.872 | 0.509 | 0.566 | 0.576 | 0.531 | 0.552 | 0.963 | 1.05 | 0.944 | 0.939 |
| NCI-H1792 | 0.685 | 0.62 | 0.627 | 0.618 | 0.977 | 0.851 | 0.835 | 1.09 | 0.874 | 0.396 | 0.567 | 0.297 | 0.492 | 0.479 | 0.323 | 0.338 | 0.391 |
| NCI-H727 | 0.619 | 0.528 | 0.714 | – | 0.936 | 0.662 | 0.752 | 0.856 | 0.686 | 0.636 | 0.409 | 0.393 | 0.584 | 0.334 | 0.37 | 0.514 | 0.253 |
| HCC-15 | 0.724 | 0.761 | 0.638 | 0.852 | 0.829 | 0.895 | 0.807 | 0.83 | 0.793 | 0.476 | 0.411 | 0.478 | 0.479 | 0.246 | 0.285 | 0.456 | 0.289 |
| NCI-H647 | 0.433 | 0.347 | 0.356 | 0.409 | 1.04 | 0.996 | 1.05 | 1.16 | 1.08 | 0.583 | 0.476 | 0.437 | 0.619 | 0.155 | 0.141 | 0.14 | 0.135 |
| NCI-H1650 | 0.325 | 0.322 | 0.426 | 0.254 | 0.799 | 0.918 | 0.783 | 0.719 | 0.512 | 0.438 | 0.352 | 0.416 | 0.32 | 0.203 | 0.191 | 0.203 | 0.192 |
| NCI-H2347 | 0.399 | 0.472 | 0.422 | 0.381 | 0.981 | 0.903 | 0.663 | 1.05 | 0.873 | 0.514 | 0.375 | 0.389 | 0.377 | 0.726 | 0.35 | 0.285 | 0.316 |
